# In patent US20180008592A1, “TREATMENT OF UREMIC PRURITUS” (TREVI THERAPEUTICS, INC., priority 2016, published 2018):
# Tested on: renally impaired patients on hemodialysis with moderate or severe uremic pruritus
# Assay: Same trial: safety and tolerability (adverse events, discontinuation)
# Type: in vivo, human
# Excerpt: The term “adverse event” (AE) as used herein is defined as any untoward medical occurrence in a clinical investigation patient reported on or after the first screening date. […] An AE can therefore be any unfavorable and unintended sign (including an abnormal laboratory finding), symptom whether or not related to the medicinal (investigational) product, or disease temporally associated with the use of a medicinal (investigational) product. Typical adverse events include nausea, vomiting, somnolence, dizziness and hallucination. In accordance with the present invention, the rate of adverse events after the treatment is substantially the same as the rate of adverse events after administering a placebo for the same period of time.
# This clinical study was a parallel, double-blind, placebo-controlled trial in which renally impaired patients on hemodialysis with moderate or severe uremic pruritus were randomized in a 1:1:1 ratio to nalbuphine ER tablets to a target dose of 120 mg BID or 60 mg BID, or matching placebo tablets BID. Medications taken for treatment of pruritus (“antipruritic medications”) were not prohibited, but their use was recorded throughout the study. Use of skin emollients was also not restricted. A placebo comparator was chosen because there are no approved treatments for uremic pruritus in the United States or Europe or an established standard of care that could serve as an active control.
# The primary objectives were to evaluate the effects on itching intensity using a Worst Itching Intensity Numerical Rating Scale (NRS, 0 [no itching]-10 [worst possible itching]) (FIG. 7) as well as safety and tolerability. The study was conducted at 46 United States investigative sites and 6 investigative sites in Romania and Poland. The Sponsor oversaw the conduct of the trial and an independent unblinded Data Safety Monitoring Board reviewed safety data approximately once a month during the conduct of the trial.
# In the first 2 weeks of treatment, patients were blindly force-titrated to their assigned target dose, with the patients in the active arms reaching a dose of 60 mg BID (NAL 60) after the first week and, for those in the high dose group, to 120 mg BID (NAL 120) after the second week. Study drug was administered in blister cards containing the labeled morning and evening doses for each day of the week. Subsequently, patients continued stable doses of the study drug for an additional 6 weeks and were then washed off study drug and followed for another 2 weeks for itching intensity and safety. No down-titration was permitted during the study, although patients who missed 6 or more consecutive doses during the Stable Dose Period (Weeks 3-8) could, with the Medical Monitor's approval, re-start treatment with blinded re-titration of just the morning or evening dose for 3 days before returning to the original dose. Patients were allowed to remain on their background antipruritic medications such as antihistamines and the use of these medications and indication for treatment was collected.
smiles,measurement,setting,value
"Cl.Oc1ccc2c3c1O[C@H]1[C@@H](O)CC[C@@]4(O)[C@@H](C2)N(CC2CCC2)CC[C@]314 [Nalbuphine, 17-(cyclobutylmethyl)-4,5α-epoxymorphinian-3,6α, 14-triol, hydrochloride]",Adverse Events Leading to Discontinuation: Dizziness,60 mg BID,0.8%
same,Adverse Events Leading to Discontinuation: Hallucination,60 mg BID,1.6%
same,Adverse Events Leading to Discontinuation: Nausea,60 mg BID,9.5%
same,Adverse Events Leading to Discontinuation: Somnolence,60 mg BID,4.0%
same,Adverse Events Leading to Discontinuation: Vomiting,60 mg BID,9.5%
same,"Adverse Events Leading to Discontinuation, number of patients","60 mg BID, N = 128",33
same,"Adverse Events Leading to Discontinuation, percent of patients","60 mg BID, N = 128",26.2%
same,Serious Adverse Events (incidence),"60 mg BID, N = 128, hydrochloride",12.7%
same,Serious Adverse Events (incidence),"60 mg BID, N = 128, listed as NAL 60, hydrochloride",12.7%
same,Adverse Events Leading to Discontinuation: Dizziness,120 mg BID,2.5%
same,Adverse Events Leading to Discontinuation: Hallucination,120 mg BID,2.5%
same,Adverse Events Leading to Discontinuation: Nausea,120 mg BID,10.0%
same,Adverse Events Leading to Discontinuation: Somnolence,120 mg BID,1.7%
same,Adverse Events Leading to Discontinuation: Vomiting,120 mg BID,5.0%
same,"Adverse Events Leading to Discontinuation, number of patients","120 mg BID, N = 120",27
same,"Adverse Events Leading to Discontinuation, percent of patients","120 mg BID, N = 120",22.5%
same,Serious Adverse Events (incidence),"120 mg BID, N = 120, hydrochloride",6.7%
same,Serious Adverse Events (incidence),"120 mg BID, N = 120, listed as NAL 120, hydrochloride",6.7%
same,"mood effects (adverse event reporting, Skindex-10 mood domain, HADS)","ER tablets, both doses",neutral in mood effects
same,safety profile,"ER tablets, both doses",no adverse safety trends other than those expected from a centrally-acting opioid
